From PubChem BioAssay (NCI)
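Dose response: 5 concentrations. Exposure: 48 h. Format: 96-well plates. Endpoint: linear interpolation; highest concentration if not reached. TGI marks complete inhibition of growth.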

Experiments:
Assay in all cases: growth of human tumour cells (NCI), 48 h
786-0 renal = tested on: 786-0 renal
A549 NSCLC = tested on: A549 NSCLC
ACHN renal = tested on: ACHN renal
BT-549 breast = tested on: BT-549 breast
CAKI-1 renal = tested on: CAKI-1 renal
CCRF-CEM leukemia = tested on: CCRF-CEM leukemia
COLO 205 colon = tested on: COLO 205 colon
DU-145 prostate = tested on: DU-145 prostate
EKVX NSCLC = tested on: EKVX NSCLC
HCC-2998 colon = tested on: HCC-2998 colon
HCT-116 colon = tested on: HCT-116 colon
HCT-15 colon = tested on: HCT-15 colon
HL-60(TB) leukemia = tested on: HL-60(TB) leukemia
HOP-62 NSCLC = tested on: HOP-62 NSCLC
HOP-92 NSCLC = tested on: HOP-92 NSCLC
HS 578T breast = tested on: HS 578T breast
HT29 colon = tested on: HT29 colon
IGROV1 ovarian = tested on: IGROV1 ovarian
K-562 leukemia = tested on: K-562 leukemia
KM12 colon = tested on: KM12 colon
LOX IMVI melanoma = tested on: LOX IMVI melanoma
M14 melanoma = tested on: M14 melanoma
MALME-3M melanoma = tested on: MALME-3M melanoma
MCF7 breast = tested on: MCF7 breast
MDA-MB-231 breast = tested on: MDA-MB-231 breast
MDA-MB-435 = tested on: MDA-MB-435
MDA-N = tested on: MDA-N
NCI-H23 lung = tested on: NCI-H23 lung
NCI-H460 lung = tested on: NCI-H460 lung
NCI/ADR-RES ovarian = tested on: NCI/ADR-RES ovarian
OVCAR-3 ovarian = tested on: OVCAR-3 ovarian
OVCAR-4 ovarian = tested on: OVCAR-4 ovarian
OVCAR-5 ovarian = tested on: OVCAR-5 ovarian
PC-3 prostate = tested on: PC-3 prostate
RPMI-8226 leukemia = tested on: RPMI-8226 leukemia
RXF 393 renal = tested on: RXF 393 renal
SF-268 CNS = tested on: SF-268 CNS
SF-295 CNS = tested on: SF-295 CNS
SF-539 CNS = tested on: SF-539 CNS
SK-MEL-2 melanoma = tested on: SK-MEL-2 melanoma
SK-MEL-28 melanoma = tested on: SK-MEL-28 melanoma
SK-MEL-5 melanoma = tested on: SK-MEL-5 melanoma
SK-OV-3 ovarian = tested on: SK-OV-3 ovarian
SN12C renal = tested on: SN12C renal
SNB-19 CNS = tested on: SNB-19 CNS
SNB-75 CNS = tested on: SNB-75 CNS
SR leukemia = tested on: SR leukemia
SW-620 colon = tested on: SW-620 colon
T-47D breast = tested on: T-47D breast
TK-10 renal = tested on: TK-10 renal
U251 CNS = tested on: U251 CNS
UACC-257 melanoma = tested on: UACC-257 melanoma
UACC-62 melanoma = tested on: UACC-62 melanoma
UO-31 renal = tested on: UO-31 renal
MOLT-4 leukemia = tested on: MOLT-4 leukemia
NCI-H522 lung = tested on: NCI-H522 lung
OVCAR-8 ovarian = tested on: OVCAR-8 ovarian
A498 renal = tested on: A498 renal
NCI-H226 lung = tested on: NCI-H226 lung

Structure (SMILES): CCCCOCOc1ccccc1P1(=O)COc2ccccc2OC1
- TGI (786-0 renal): > 100 µM
- TGI (A549 NSCLC): > 100 µM
- TGI (ACHN renal): > 100 µM
- TGI (BT-549 breast): > 100 µM
- TGI (CAKI-1 renal): > 100 µM
- TGI (CCRF-CEM leukemia): > 100 µM
- TGI (COLO 205 colon): > 100 µM
- TGI (DU-145 prostate): > 100 µM
- TGI (EKVX NSCLC): > 100 µM
- TGI (HCC-2998 colon): > 100 µM
- TGI (HCT-116 colon): > 100 µM
- TGI (HCT-15 colon): > 100 µM
- TGI (HL-60(TB) leukemia): > 100 µM
- TGI (HOP-62 NSCLC): > 100 µM
- TGI (HOP-92 NSCLC): > 100 µM
- TGI (HS 578T breast): > 100 µM
- TGI (HT29 colon): > 100 µM
- TGI (IGROV1 ovarian): > 100 µM
- TGI (K-562 leukemia): > 100 µM
- TGI (KM12 colon): > 100 µM
- TGI (LOX IMVI melanoma): > 100 µM
- TGI (M14 melanoma): > 100 µM
- TGI (MALME-3M melanoma): > 100 µM
- TGI (MCF7 breast): > 100 µM
- TGI (MDA-MB-231 breast): > 100 µM
- TGI (MDA-MB-435): > 100 µM
- TGI (MDA-N): > 100 µM
- TGI (NCI-H23 lung): > 100 µM
- TGI (NCI-H460 lung): > 100 µM
- TGI (NCI/ADR-RES ovarian): > 100 µM
- TGI (OVCAR-3 ovarian): > 100 µM
- TGI (OVCAR-4 ovarian): > 100 µM
- TGI (OVCAR-5 ovarian): > 100 µM
- TGI (PC-3 prostate): > 100 µM
- TGI (RPMI-8226 leukemia): > 100 µM
- TGI (RXF 393 renal): > 100 µM
- TGI (SF-268 CNS): > 100 µM
- TGI (SF-295 CNS): > 100 µM
- TGI (SF-539 CNS): > 100 µM
- TGI (SK-MEL-2 melanoma): > 100 µM
- TGI (SK-MEL-28 melanoma): > 100 µM
- TGI (SK-MEL-5 melanoma): > 100 µM
- TGI (SK-OV-3 ovarian): > 100 µM
- TGI (SN12C renal): > 100 µM
- TGI (SNB-19 CNS): > 100 µM
- TGI (SNB-75 CNS): > 100 µM
- TGI (SR leukemia): > 100 µM
- TGI (SW-620 colon): > 100 µM
- TGI (T-47D breast): > 100 µM
- TGI (TK-10 renal): 94.1 µM
- TGI (U251 CNS): > 100 µM
- TGI (UACC-257 melanoma): > 100 µM
- TGI (UACC-62 melanoma): > 100 µM
- TGI (UO-31 renal): > 100 µM

Structure (SMILES): O=CNc1ccc(S(=O)(=O)c2ccc(NC=O)cc2)cc1
- TGI (786-0 renal): > 100 µM
- TGI (A549 NSCLC): > 100 µM
- TGI (ACHN renal): > 100 µM
- TGI (BT-549 breast): > 100 µM
- TGI (CAKI-1 renal): > 100 µM
- TGI (CCRF-CEM leukemia): > 100 µM
- TGI (COLO 205 colon): > 100 µM
- TGI (DU-145 prostate): > 100 µM
- TGI (EKVX NSCLC): > 100 µM
- TGI (HCC-2998 colon): > 100 µM
- TGI (HCT-116 colon): > 100 µM
- TGI (HCT-15 colon): > 100 µM
- TGI (HL-60(TB) leukemia): > 100 µM
- TGI (HOP-62 NSCLC): > 100 µM
- TGI (HOP-92 NSCLC): > 100 µM
- TGI (HS 578T breast): > 100 µM
- TGI (HT29 colon): > 100 µM
- TGI (IGROV1 ovarian): > 100 µM
- TGI (K-562 leukemia): > 100 µM
- TGI (KM12 colon): > 100 µM
- TGI (LOX IMVI melanoma): > 100 µM
- TGI (M14 melanoma): > 100 µM
- TGI (MALME-3M melanoma): > 100 µM
- TGI (MCF7 breast): > 100 µM
- TGI (MDA-MB-231 breast): > 100 µM
- TGI (MDA-MB-435): > 100 µM
- TGI (MDA-N): > 100 µM
- TGI (MOLT-4 leukemia): > 100 µM
- TGI (NCI-H23 lung): > 100 µM
- TGI (NCI-H460 lung): > 100 µM
- TGI (NCI-H522 lung): > 100 µM
- TGI (NCI/ADR-RES ovarian): > 100 µM
- TGI (OVCAR-3 ovarian): > 100 µM
- TGI (OVCAR-4 ovarian): > 100 µM
- TGI (OVCAR-5 ovarian): > 100 µM
- TGI (OVCAR-8 ovarian): > 100 µM
- TGI (PC-3 prostate): > 100 µM
- TGI (RPMI-8226 leukemia): > 100 µM
- TGI (SF-268 CNS): > 100 µM
- TGI (SF-295 CNS): > 100 µM
- TGI (SF-539 CNS): > 100 µM
- TGI (SK-MEL-2 melanoma): > 100 µM
- TGI (SK-MEL-28 melanoma): > 100 µM
- TGI (SK-MEL-5 melanoma): > 100 µM
- TGI (SK-OV-3 ovarian): > 100 µM
- TGI (SN12C renal): > 100 µM
- TGI (SNB-19 CNS): > 100 µM
- TGI (SNB-75 CNS): > 100 µM
- TGI (SR leukemia): > 100 µM
- TGI (SW-620 colon): > 100 µM
- TGI (T-47D breast): > 100 µM
- TGI (TK-10 renal): > 100 µM
- TGI (U251 CNS): > 100 µM
- TGI (UACC-257 melanoma): > 100 µM
- TGI (UACC-62 melanoma): > 100 µM
- TGI (UO-31 renal): > 100 µM

Structure (SMILES): CCN(CC)c1ccc(C2NC(=O)c3ccccc3N2)cc1 (configuration not stated)
- TGI (786-0 renal): > 41.2 µM
- TGI (A498 renal): > 31.6 µM
- TGI (A549 NSCLC): > 100 µM
- TGI (ACHN renal): > 100 µM
- TGI (BT-549 breast): > 100 µM
- TGI (CAKI-1 renal): > 26.5 µM
- TGI (CCRF-CEM leukemia): 3.38 µM
- TGI (COLO 205 colon): 4.51 µM
- TGI (DU-145 prostate): > 100 µM
- TGI (EKVX NSCLC): > 100 µM
- TGI (HCC-2998 colon): 5.79 µM
- TGI (HCT-116 colon): > 100 µM
- TGI (HCT-15 colon): > 100 µM
- TGI (HOP-62 NSCLC): > 100 µM
- TGI (HOP-92 NSCLC): 66.5 µM
- TGI (HS 578T breast): > 30 µM
- TGI (HT29 colon): > 20.8 µM
- TGI (IGROV1 ovarian): > 100 µM
- TGI (K-562 leukemia): > 100 µM
- TGI (LOX IMVI melanoma): > 100 µM
- TGI (M14 melanoma): > 100 µM
- TGI (MALME-3M melanoma): > 100 µM
- TGI (MCF7 breast): > 100 µM
- TGI (MDA-MB-231 breast): 7.76 µM
- TGI (MDA-MB-435): 3.44 µM
- TGI (MDA-N): 2.55 µM
- TGI (MOLT-4 leukemia): > 100 µM
- TGI (NCI-H226 lung): > 100 µM
- TGI (NCI-H23 lung): > 100 µM
- TGI (NCI-H460 lung): 7.14 µM
- TGI (NCI-H522 lung): > 100 µM
- TGI (NCI/ADR-RES ovarian): > 100 µM
- TGI (OVCAR-3 ovarian): > 100 µM
- TGI (OVCAR-4 ovarian): > 100 µM
- TGI (OVCAR-5 ovarian): > 100 µM
- TGI (OVCAR-8 ovarian): > 100 µM
- TGI (PC-3 prostate): > 100 µM
- TGI (RPMI-8226 leukemia): > 100 µM
- TGI (RXF 393 renal): > 100 µM
- TGI (SF-268 CNS): > 100 µM
- TGI (SF-295 CNS): > 86.3 µM
- TGI (SF-539 CNS): 8.68 µM
- TGI (SK-MEL-2 melanoma): > 100 µM
- TGI (SK-MEL-28 melanoma): > 100 µM
- TGI (SK-MEL-5 melanoma): > 100 µM
- TGI (SK-OV-3 ovarian): > 100 µM
- TGI (SN12C renal): > 100 µM
- TGI (SNB-19 CNS): > 100 µM
- TGI (SNB-75 CNS): > 20.3 µM
- TGI (SR leukemia): > 100 µM
- TGI (SW-620 colon): > 100 µM
- TGI (T-47D breast): > 100 µM
- TGI (TK-10 renal): > 100 µM
- TGI (U251 CNS): > 100 µM
- TGI (UACC-257 melanoma): > 100 µM
- TGI (UACC-62 melanoma): > 100 µM
- TGI (UO-31 renal): > 100 µM
